Experimental data: ChEMBL document CHEMBL1158428, “The influence of double bond geometry in the inhibition of cyclooxygenases by sulindac derivatives” (Bioorg Med Chem Lett, 2009)
The source made the active and inactive calls. No cut-off for these calls is given here.

Assays:
[1] = molecular target: T1, Prostaglandin G/H synthase 1 (Ovis aries) (UniProt P05979); conditions: 115 nM
T1 sequence (whole entry): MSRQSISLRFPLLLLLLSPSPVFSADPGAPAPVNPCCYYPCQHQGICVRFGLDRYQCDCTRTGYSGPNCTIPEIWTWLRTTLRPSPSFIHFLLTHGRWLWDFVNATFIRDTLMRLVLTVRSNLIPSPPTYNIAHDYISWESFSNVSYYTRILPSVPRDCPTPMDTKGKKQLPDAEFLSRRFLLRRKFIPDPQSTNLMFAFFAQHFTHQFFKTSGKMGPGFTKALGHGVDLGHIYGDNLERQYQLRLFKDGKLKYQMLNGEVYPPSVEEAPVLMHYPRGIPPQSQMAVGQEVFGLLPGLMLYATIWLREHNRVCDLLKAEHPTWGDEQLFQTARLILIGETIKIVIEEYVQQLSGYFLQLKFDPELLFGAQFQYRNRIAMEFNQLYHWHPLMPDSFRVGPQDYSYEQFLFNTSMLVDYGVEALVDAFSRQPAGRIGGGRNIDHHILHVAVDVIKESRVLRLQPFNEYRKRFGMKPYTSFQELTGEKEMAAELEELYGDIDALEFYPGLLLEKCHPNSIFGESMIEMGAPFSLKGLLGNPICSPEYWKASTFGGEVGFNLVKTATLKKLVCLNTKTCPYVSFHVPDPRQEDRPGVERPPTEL
Description: Inhibition of ovine COX1 under saturated substrate level preincubated at 115 nM for 17 mins by TLC

[2] = molecular target: T2, Prostaglandin G/H synthase 2 (Homo sapiens) (UniProt P35354); assay: Inhibition of COX2
T2 sequence (whole entry): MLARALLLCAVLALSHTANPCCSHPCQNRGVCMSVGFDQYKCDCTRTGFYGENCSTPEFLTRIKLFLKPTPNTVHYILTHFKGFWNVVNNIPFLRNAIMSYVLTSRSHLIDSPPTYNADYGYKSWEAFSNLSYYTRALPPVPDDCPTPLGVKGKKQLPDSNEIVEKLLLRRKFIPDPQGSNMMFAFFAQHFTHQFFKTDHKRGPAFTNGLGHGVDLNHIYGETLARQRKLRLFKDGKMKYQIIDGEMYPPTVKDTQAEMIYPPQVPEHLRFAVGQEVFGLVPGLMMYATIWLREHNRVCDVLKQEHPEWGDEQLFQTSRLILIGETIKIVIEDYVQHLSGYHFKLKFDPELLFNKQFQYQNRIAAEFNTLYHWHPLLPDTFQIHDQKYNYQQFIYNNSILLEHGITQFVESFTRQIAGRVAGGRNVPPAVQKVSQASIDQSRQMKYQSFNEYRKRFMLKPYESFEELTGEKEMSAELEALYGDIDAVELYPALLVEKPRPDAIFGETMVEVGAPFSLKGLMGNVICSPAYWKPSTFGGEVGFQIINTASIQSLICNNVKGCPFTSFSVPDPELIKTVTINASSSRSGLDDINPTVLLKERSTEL

Row | Structure (SMILES) | inhibition [1] [%] | Activity [2]
1 | CSc1ccc(/C=C2/C=C(CC(=O)O)c3cc(F)ccc32)cc1 | 20 | –
2 | CSc1ccc(/C=C2/C(C)=C(CC(=O)O)c3cc(F)ccc32)cc1 | 75 | –
3 | COc1ccc2c(c1)c(CC(=O)O)cn2C(=O)c1ccc(Cl)cc1 | – | inactive
